Columns and labels:
[1] = tested on: brains, heart, liver, muscle, and DRG of the NHPs; assay: Maturation of TTM-001 and TTM-002 capsids, NGS enrichment in NHP tissues; type: in vivo; settings: relative to AAV9 control
Procedure, shortened: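 Variants carry mutations within and flanking the loop IV peptide insert: positions 450–466 were triplet-randomized, while positions 449–466 received low-frequency point mutations. The combined pool went into two NHPs, and each peptide was scored by NGS enrichment ratio against AAV9.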

brain = assay: Matured TTM-001 and TTM-002 variants, NGS enrichment in mouse brain; type: in vivo, mice; settings: relative to AAV9 control
[2] = NGS fold-enrichment of matured AAV capsid variants, NHP brain, RNA
[3] = NGS fold-enrichment of RNA, NHP brain
[4] = NGS fold-enrichment, NHP liver DNA
[5] = NGS fold-enrichment, NHP liver RNA
[6] = NGS fold-enrichment, NHP muscle
[7] = NGS fold-enrichment, mouse brain
[8] = NGS fold-enrichment, DRG of NHPs
[9] = NGS fold-enrichment, RNA, brain of NHPs
[10] = NGS fold-enrichment, heart of NHPs
[11] = NGS fold-enrichment, liver DNA of NHPs
[12] = NGS fold-enrichment, liver RNA of NHPs
[13] = NGS fold-enrichment, muscle of NHPs
[14] = NGS fold-enrichment, brain of mice

Row | Sequence | Fold Enrichment relative to AAV9, Brain (NHP) [1, 2] [fold] | Fold Enrichment relative to AAV9, DRG (NHP) ([1]; NHP DRG) [fold] | Fold Enrichment relative to AAV9, Heart (NHP) ([1]; NHP heart) [fold] | Fold Enrichment relative to AAV9, Liver DNA (NHP) ([1]; NHP liver, DNA) [fold] | Fold Enrichment relative to AAV9, Liver RNA (NHP) ([1]; NHP liver, RNA) [fold] | Fold Enrichment relative to AAV9, Muscle (NHP) ([1]; NHP muscle) [fold] | Fold Enrichment relative to AAV9, Brain (Mouse) (brain; mouse brain) [fold] | Fold Enrichment relative to AAV9, Brain (NHP) [1, 3] [fold] | Fold Enrichment relative to AAV9, DRG (NHP) ([1]; NGS fold-enrichment, NHP DRG) [fold] | Fold Enrichment relative to AAV9, Heart (NHP) ([1]; NGS fold-enrichment, NHP heart) [fold] | Fold Enrichment relative to AAV9, Liver DNA (NHP) [1, 4] [fold] | Fold Enrichment relative to AAV9, Liver RNA (NHP) [1, 5] [fold] | Fold Enrichment relative to AAV9, Muscle (NHP) [1, 6] [fold] | Fold Enrichment relative to AAV9, Brain (Mouse) (brain; [7]) [fold] | other results
1 | KTINGTGSPHSKAPNQLT | 58.738 | 0.000 | 0.000 | 0.035 | 0.229 | 0.000 | 86.939 |  |  |  |  |  |  |  | 
2 | KTVNGSGSPHSKAQNQWT | 56.823 | 0.000 | 0.000 | 0.219 | 0.000 | 0.299 | 69.906 |  |  |  |  |  |  |  | 
3 | KTIDGHDSPHKSGRNQQI |  |  |  |  |  |  |  | 80.240 | 0.000 | 0.037 | 0.144 | 0.040 | 0.000 | 10.363 | 
4 | KTVNGHDSPHKSGHTQQT |  |  |  |  |  |  |  | 82.246 | 0.000 | 0.378 | 0.123 | 0.000 | 1.142 | 6.160 | 
5 | KNINGSGSPHSKAQNQQT (KNTNGSGSPHSKAQNQQT) |  |  |  |  |  |  |  |  |  |  |  |  |  |  | Fold Enrichment relative to AAV9, DRG (NHP) [1, 8]: 0.000 fold; Fold Enrichment relative to AAV9, Brain (NHP) [1, 9]: 78.445 fold; Fold Enrichment relative to AAV9, Heart (NHP) [1, 10]: 0.000 fold; Fold Enrichment relative to AAV9, Liver DNA (NHP) [1, 11]: 0.177 fold; Fold Enrichment relative to AAV9, Liver RNA (NHP) [1, 12]: 0.571 fold; Fold Enrichment relative to AAV9, Muscle (NHP) [1, 13]: 0.000 fold; Fold Enrichment relative to AAV9, Brain (Mouse) (brain; [14]): 89.719 fold
6 | KTTNGQDSPHKSGQNQQS |  |  |  |  |  |  |  | 92.419 | 0.000 | 0.037 | 0.079 | 0.000 | 0.043 | 7.592 | 
7 | KTELRHDSPHKSGQNQQT |  |  |  |  |  |  |  | 98.098 | 0.000 | 0.019 | 0.007 | 0.000 | 0.000 | 6.588 | 
8 | KTINGSGSPHSKAQYQHA |  |  |  |  |  |  |  |  |  |  |  |  |  |  | Fold Enrichment relative to AAV9, DRG (NHP) [1, 8]: 0.000 fold; Fold Enrichment relative to AAV9, Brain (NHP) [1, 9]: 64.435 fold; Fold Enrichment relative to AAV9, Heart (NHP) [1, 10]: 0.000 fold; Fold Enrichment relative to AAV9, Liver DNA (NHP) [1, 11]: 0.097 fold; Fold Enrichment relative to AAV9, Liver RNA (NHP) [1, 12]: 0.993 fold; Fold Enrichment relative to AAV9, Muscle (NHP) [1, 13]: 0.024 fold; Fold Enrichment relative to AAV9, Brain (Mouse) (brain; [14]): 57.278 fold
9 | KTERASGSPHSKAQNQQT |  |  |  |  |  |  |  | 103.669 | 0.000 | 0.000 | 0.070 | 0.127 | 0.000 | 115.550 | Fold Enrichment relative to AAV9, DRG (NHP) [1, 8]: 0.000 fold; Fold Enrichment relative to AAV9, Brain (NHP) [1, 9]: 103.669 fold; Fold Enrichment relative to AAV9, Heart (NHP) [1, 10]: 0.000 fold; Fold Enrichment relative to AAV9, Liver DNA (NHP) [1, 11]: 0.070 fold; Fold Enrichment relative to AAV9, Liver RNA (NHP) [1, 12]: 0.127 fold; Fold Enrichment relative to AAV9, Muscle (NHP) [1, 13]: 0.000 fold; Fold Enrichment relative to AAV9, Brain (Mouse) (brain; [14]): 115.550 fold
10 | KTSNGHDSPHKSGQNQPA |  |  |  |  |  |  |  | 75.834 | 0.000 | 0.056 | 0.000 | 0.000 | 0.000 | 8.501 | 
11 | KSDKGSGSPHSKAQNQQT | 58.248 | 0.000 | 0.000 | 0.166 | 0.076 | 0.000 | 146.566 |  |  |  |  |  |  |  | 
12 | KTENASGSPHSKAQNQQT | 58.187 | 0.000 | 0.038 | 0.129 | 0.371 | 0.000 | 88.439 |  |  |  |  |  |  |  | 
13 | KTESWSGSPHSKAQNQQT |  |  |  |  |  |  |  |  |  |  |  |  |  |  | Fold Enrichment relative to AAV9, DRG (NHP) [1, 8]: 0.000 fold; Fold Enrichment relative to AAV9, Brain (NHP) [1, 9]: 69.144 fold; Fold Enrichment relative to AAV9, Heart (NHP) [1, 10]: 0.000 fold; Fold Enrichment relative to AAV9, Liver DNA (NHP) [1, 11]: 0.019 fold; Fold Enrichment relative to AAV9, Liver RNA (NHP) [1, 12]: 0.000 fold; Fold Enrichment relative to AAV9, Muscle (NHP) [1, 13]: 0.000 fold; Fold Enrichment relative to AAV9, Brain (Mouse) (brain; [14]): 67.699 fold
14 | KTINGSGSPHSKAQERST | 58.021 | 0.000 | 0.011 | 0.409 | 0.829 | 0.005 | 87.656 |  |  |  |  |  |  |  | 
15 | KTINGHDSPHKSAQNYQT |  |  |  |  |  |  |  | 130.375 | 0.000 | 0.124 | 0.123 | 0.097 | 0.000 | 19.443 | 
16 | KNSIGSGSPHSKAQNQQT | 57.101 | 0.000 | 0.052 | 0.074 | 0.083 | 0.000 | 97.381 |  |  |  |  |  |  |  | 
17 | KTSNASGSPHSKAHNQQT |  |  |  |  |  |  |  |  |  |  |  |  |  |  | Fold Enrichment relative to AAV9, DRG (NHP) [1, 8]: 0.000 fold; Fold Enrichment relative to AAV9, Brain (NHP) [1, 9]: 59.607 fold; Fold Enrichment relative to AAV9, Heart (NHP) [1, 10]: 0.078 fold; Fold Enrichment relative to AAV9, Liver DNA (NHP) [1, 11]: 0.050 fold; Fold Enrichment relative to AAV9, Liver RNA (NHP) [1, 12]: 0.031 fold; Fold Enrichment relative to AAV9, Muscle (NHP) [1, 13]: 0.067 fold; Fold Enrichment relative to AAV9, Brain (Mouse) (brain; [14]): 67.967 fold
18 | KTINGSGSPHSKNRDQQT | 51.830 | 0.000 | 0.008 | 0.138 | 0.480 | 0.000 | 100.300 |  |  |  |  |  |  |  | 

Reference: patent US20260250318A1, “COMPOSITIONS AND METHODS FOR CROSSING THE BLOOD BRAIN BARRIER” (VOYAGER THERAPEUTICS, INC., priority 2022, published 2026)
